“Also recorded” adds a separate entry of the source. Where two headings read alike, the source gives them in different places. Marks after values point to notes of the source that are not given here.
What was measured:
[1] = Anesthetic effects in rats, bolus IV (LORR model of general anesthesia); assay type: in vivo, rat; conditions: male, Sprague-Dawley, rat, in vivo, read-out: MTD (maximum tolerated dose)
Method: (§1) Also measured was minimum dose to achieve LORR and maximum tolerated dose (MTD).
(§2) The ranges of doses studied were 2, 3, 4, 7, 14 and 21 mg/kg for Compound 1 and 3.5, 4.0, 7.0 and 14.0 mg/kg for […].

[2] = system: male Sprague-Dawley rats; test: as above; assay type: in vivo, rat; conditions: for deaths / production of LORR by dose: 6 rats per dose group; for deaths: dose as stated
Method: as §1, §2

[3] = system: Beagle dogs
[4] = system: Beagle dogs; test: Hemodynamic effects (blood pressure) in beagle dogs, bolus IV; assay type: in vivo, dog; conditions: for MAP % change from baseline: 4 min after bolus IV
Method: The study was a crossover design. […] The MTD was defined as the dose that reduced mean arterial blood pressure (MAP) by 50% or to less than 50 millimeters of mercury (mmHg or mm Hg). All animals received supplemental oxygen and, if needed, ventilatory support after 4 min of apnea.
Hemodynamic data, such as mean arterial pressure (MAP), were recorded at baseline, 1, 2, 4, 8, 15, 20 and 30 min. Compound 1 was administered at 5, 10, 15 and 30 mg/kg to 6, 4, 3 and 3 dogs respectively. […] Data were analyzed with a 2-way ANOVA followed by t-test with Bonferroni correction for multiple comparisons.

[5] = system: Male Sprague Dawley rats; test: Test A. Loss of Righting Reflex Assay; assay type: in vivo, rat; conditions: for duration of anesthesia (loss of the Righting Reflex): 7 mg/kg bolus in tail vein, 1% formulation
Method: The ability of a compound of the invention to produce a sedative or hypnotic effect can be determined using standard pharmacological models which are well known to the art.
Test A. Loss of Righting Reflex Assay
Male Sprague Dawley rats were restrained in a holder and injection test compounds were injected in the tail vein (based on mg test compound/kg body weight). Following administration, the rats were placed in dorsal recumbent position on a heating blanket. The time to onset for the loss of the Righting Reflex (RR-ability of rat to right itself) was recorded, as was the duration of the loss of the RR.

[6] = system: Male descented ferrets; test: Pro-emetic activity in ferrets; conditions: 6 ferrets, IV infusion 15 min at 1 mg/kg/min, 45 min observation
Method: (§3) Male descented ferrets weighing 1.0-1.5 kg with vascular access ports in the jugular vein were housed on a 12/12-hour light/dark cycle under controlled temperature, with food and water provided ad libitum. On each study day, food was presented to ferrets one hour prior to dosing. Immediately prior to dosing, food and water were removed. A 1% Compound 1 formulation, prepared as described in Example 2 and formulated in accordance with Example 5, or […] was administered by IV infusion to the ferrets; see Wynn R L et al, 1993, Eur J Pharmacol 241, 42 re […] administration in ferrets. After administration of Compound 1 or […], animals were placed in clean, transparent cages (with lids) and left unrestrained for a 45-min observation period by an observer blinded to the specific treatment administered.
(§4) Episodes of retching and/or vomiting were considered separate episodes when the interval between retches and/or vomits exceeded 5 sec.

[7] = system: commercial farm-bred swine; test: Hemodynamic effects, blood gas and serum chemistry in anesthetized ventilated pigs, IV infusion; assay type: in vivo, pig
Method: Anesthesia was induced with isoflurane. Intravascular access was obtained from an ear vein. Each pig was intubated and mechanically ventilated.
ECG was monitored throughout the study. […] Body temperature was maintained at 37° C.
Arterial blood gas samples from pigs infused with Compound 1 were taken and analyzed for blood gas and serum chemistry values.

[8] = system: Male descented ferrets; test: Anti-emetic activity in ferrets (morphine sulfate-induced emesis); assay type: in vivo, ferret; conditions: 6 ferrets, 45 min observation
Method: as §3, §4
After termination of the infusion, 0.5 mg/kg morphine sulfate was administered subcutaneously and the ferrets were monitored for 45 min as described above. Six additional ferrets were administered subcutaneously 0.5 mg/kg morphine sulfate only.

[9] = Pharmacokinetic study, IV infusion in domestic pigs; assay type: in vivo
Method: A 0.5% Compound 1 formulation, prepared as described in Example 2 and formulated in accordance with Example 6, was administered to 6 pigs via a 20-min intravenous (IV) infusion at 0.6 mg/kg/min (12 mg/kg total dose).

[10] = system: commercial farm-bred swine; assay type: in vivo, pig; conditions: pigs, 0.6 mg per kg per min
Method: Experiments were performed on commercial farm-bred swine of either sex (mean weight 33.6 kg). Anesthesia was induced with isoflurane. Intravascular access was obtained from an ear vein. Each pig was intubated and mechanically ventilated. Tissue oxygenation was monitored using continuous pulse oximetry placed on the tongue. Ventilation was monitored using an inspired/expired gas analyzer that measured oxygen, carbon dioxide, and potent inhalation agent concentrations. Ventilator settings were adjusted as needed to maintain steady state.
ECG was monitored throughout the study. Arterial blood pressure was monitored through the cannulated left femoral artery. MAP, systolic and diastolic arterial pressures and heart rate were collected every 5 seconds. An internal jugular vein was cannulated with a pulmonary artery catheter for thermodilution estimates of cardiac output and blood temperature. Body temperature was maintained at 37° C.

[11] = system: pig; test: Test B. Anesthetized Pig Model (hemodynamic profile); assay type: in vivo; conditions: equi-anesthetic doses (3 mg/kg vs propofol 6 mg/kg), FIGS. 1 and 2
Method: The hemodynamic profile of a compound of the invention can be determined using standard pharmacological models which are well known to the art. The hemodynamic and anesthetic profiles of a compound of the invention were evaluated simultaneously using an anesthetized pig model (as described in Test B below). In this assay, the hemodynamic profile of a compound of the invention was compared to that of propofol at equi-anesthetic doses.
Test B. Anesthetized Pig Model
The anesthetic induction will be performed using a modification of a technique described by Ko et al (Ko et al., Lab Anim Sci 1993; 43: 476-80) for swine (Telazol, xylazine and ketamine given as an intramuscular injection). […]
A pilot dose-finding study will be performed to establish an appropriate infusion dose for each agent. […] Blood samples (1 mL each) may be collected at pre-dose and at 2, 4, 6, 8, 10, 12, 15, 20, 22, […], 25, 35, 50, 65 and 80 minutes after the start of the first infusion for pharmacokinetic purposes; EEG will be recorded continuously as the primary pharmacodynamic endpoint. […]
The EEG signal will be fed to a BIS analyzer (Aspect Medical) which provides continuous output of processed EEG data. The output consists of a “BIS” number calculated by a proprietary algorithm that ranges between 100 (fully conscious) and 0 (isoelectric) and indicates brain activity. […]

[12] = Aqueous phase concentration in lipid emulsion (pain on injection surrogate), ultrafiltration + LC/MS/MS; assay type: physicochemical; conditions: for reduction in aqueous phase concentration compared to propofol in identical formulations: 1% lipid emulsions formulated per Example 5; for aqueous phase concentration: aqueous phase of 1% lipid emulsion separated by ultrafiltration
Method: The concentration of Compound 1 in the aqueous phase (aqueous phase concentration) of a lipid emulsion formulation was determined.
A one percent (1%) Compound 1 formulation was formulated in accordance with Example 5, Compound 1 being prepared as described in Example 2.

[13] = 15 min IV infusion at 1 mg/kg/min then 0.5 mg/kg morphine sulfate s.c.
[14] = morphine sulfate 0.5 mg/kg subcutaneously alone

CC[C@H](C)c1cccc(C(C)C)c1O [(S)-(+)-2-sec-butyl-6-isopropylphenol]
MTD [1]: 21 mg/kg | HD50 (dose required to cause 50% of the rats to lose righting reflex) [2]: 5 mg/kg | HD7 min (dose required to produce 7 minutes of anesthesia) [2]: 6.7 mg/kg | TI (therapeutic index; ratio of MTD to HD7 min) [2]: 3.1 | deaths [2]: One of six rats died when administered 28 mg/kg | duration of anesthesia (sleep time) ([3]; dogs, bolus IV, 5 mg/kg): 12 min | duration of anesthesia (sleep time) ([3]; dogs, bolus IV, 10 mg/kg): 33 min | duration of anesthesia (sleep time) ([3]; dogs, bolus IV, 15 mg/kg): 50 min | duration of anesthesia (sleep time) ([3]; dogs, bolus IV, 30 mg/kg): 56 min | MAP % change from baseline ([4]; 10 mg/kg): +3% | MAP % change from baseline ([4]; 15 mg/kg): +1% | MAP % change from baseline ([4]; 30 mg/kg): −33%

CC[C@@H](C)c1cccc(C(C)C)c1O [Compound 1, (R)-(−)-2-sec-butyl-6-isopropylphenol]
duration of anesthesia (loss of the Righting Reflex) [5]: 14.9 min | hypnotic potency compared to propofol ([5]; Test A): more potent than propofol | episodes of vomiting or retching, drug administered alone [6]: did not produce any episodes of vomiting or retching | metabolic alterations (arterial blood gas and serum chemistry) ([7]; IV infusion 0.6 mg/kg/min): did not produce any significant metabolic alterations | retches in the presence of morphine [8, 13]: 47 | vomits in the presence of morphine [8, 13]: 1 | metabolic pathway [9]: glucuronidation in the 1-position with the 4-position being subject to hydroxylation followed by glucuronide and sulfate conjugation | Clearance ([9]; IV infusion): exceeded estimated hepatic blood flow | MTD [1]: 14 mg/kg | HD50 (dose required to cause 50% of the rats to lose righting reflex) [2]: 2.3 mg/kg | HD7 min (dose required to produce 7 minutes of anesthesia) [2]: 3.4 mg/kg | TI (therapeutic index; ratio of MTD to HD7 min) [2]: 4.1 | production of LORR by dose [2]: LORR at all doses of at least 3 mg/kg | deaths [2]: Three rats died when administered 21 mg/kg | IV infusion time producing maximal suppression of BIS (<10) [10]: 17.3 ± 1.9 min | hemodynamic profile vs. propofol [11]: improved hemodynamic profile | anesthetic depth by Cumulative sedation scores ([3]; dog, in vivo): approximately equipotent anesthetic depth | duration of anesthesia (sleep time) compared with propofol ([3]; dog, in vivo, iv): similar | effect on BIS compared with propofol ([3]; dog, in vivo, iv): greater effect on BIS at doses of at least 15 mg/kg | duration of anesthesia (sleep time) ([3]; dog, in vivo, iv, 5 mg/kg): 23 min | duration of anesthesia (sleep time) ([3]; dog, in vivo, iv, 10 mg/kg): 33 min | duration of anesthesia (sleep time) ([3]; dog, in vivo, iv, 15 mg/kg): 40 min | duration of anesthesia (sleep time) ([3]; dog, in vivo, iv, 30 mg/kg): 71 min | reduction in aqueous phase concentration compared to propofol in DIPRIVAN ([12]; 1% Compound 1 formulation vs DIPRIVAN): 57% | reduction in aqueous phase concentration compared to propofol in identical formulations [12]: 72% | reduction in aqueous phase concentration compared to propofol in identical formulations ([12]; listed as (R)-(−)-2-sec-butyl-6-isopropylphenol): more than 70% | aqueous phase concentration [12]: 1.78 ± 0.17 µg/mL | MAP % change from baseline ([4]; 10 mg/kg): 5% | MAP % change from baseline ([4]; 15 mg/kg): −19% | MAP % change from baseline ([4]; 30 mg/kg): −41%

CN1CC[C@]23c4c5ccc(O)c4O[C@H]2[C@@H](O)C=C[C@H]3[C@H]1C5.O=S(=O)(O)O [Morphine sulfate, reference compound]
episodes of vomiting [8, 14]: 15 | retches [8, 14]: 157

CC(C)c1cccc(C(C)C)c1O [propofol, 2,6-diisopropylphenol, reference compound]
duration of anesthesia (loss of the Righting Reflex) [5]: 7.1 min | decrease in MAP, comparison ([7]; IV infusion, Compound 1 0.6 mg/kg/min vs propofol 0.750 mg/kg/min, FIG. 3): significantly larger decrease in MAP than Compound 1 | lowest HR measured, comparison ([7]; IV infusion, Compound 1 0.6 mg/kg/min vs propofol 0.750 mg/kg/min, FIG. 4): significantly lower than the lowest HR measured for Compound 1 | MTD [1]: < 14 mg/kg | TI (therapeutic index; ratio of MTD to HD7 min) [2]: <2 | production of LORR by dose [2]: no LORR in 4 of 6 rats tested at 3.5 mg/kg | duration of anesthesia (sleep time) ([3]; dog, in vivo, iv, 5 mg/kg): 13 min | duration of anesthesia (sleep time) ([3]; dog, in vivo, iv, 10 mg/kg): 28 min | dogs reaching the MTD (MAP reduced by 50% or to less than 50 mmHg) ([3]; dog, in vivo, iv, 15 mg/kg): Two of 3 dogs | duration of anesthesia (sleep time) ([3]; dog, in vivo, iv, 15 mg/kg): 43 min | duration of anesthesia (sleep time) ([3]; dog, in vivo, iv, 30 mg/kg): 69 min | aqueous phase concentration [12]: 6.28 ± 0.41 µg/mL | MAP % change from baseline ([4]; 10 mg/kg): −22% | MAP % change from baseline ([4]; 15 mg/kg): −32% | MAP % change from baseline ([4]; 30 mg/kg): −66%* | effect on MAP, comparison ([4]; bolus IV): significantly greater effect on MAP than does Compound 1; also recorded: significantly greater effect on MAP than did (S)-(+)-2-sec-butyl-6-isopropylphenol

Source: patent US8350097B2, “Therapeutic compounds” (priority 2007, dated 2013)
